Data reported in patent publication US10508120B2, “TYK2 inhibitors and uses thereof” (Nimbus Lakshmi, Inc., priority 2017, dated 2019).

Assays:
Tyk2 kinase domain (DH1) = Tyk2 kinase domain (DH1) (Homo sapiens (Human), UniProt P29597); assay: Tyk2 Radioactive Kinase Assay; assay type: biochemical; settings: compound at 10 μM, ATP 10 μM; for inhibition at 10 µM: read-out: Tyk2 JH1% Inhibition @ 10 μM
Summary of the method: (§1)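 Values are single-concentration percent inhibition figures. They were obtained with 10 μM compound in a radioactivity-based kinase assay run separately on each enzyme.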

JAK2 kinase domain (JH1) = JAK2 kinase domain (JH1) (Homo sapiens (Human), UniProt O60674); assay: JAK2 Radioactive Kinase Assay; assay type: biochemical; settings: compound at 10 μM, ATP 10 μM; for inhibition at 10 µM: read-out: JAK2 JH1% Inhibition @ 10 μM
Chain of JAK2 kinase domain (JH1) (O60674 849-1124): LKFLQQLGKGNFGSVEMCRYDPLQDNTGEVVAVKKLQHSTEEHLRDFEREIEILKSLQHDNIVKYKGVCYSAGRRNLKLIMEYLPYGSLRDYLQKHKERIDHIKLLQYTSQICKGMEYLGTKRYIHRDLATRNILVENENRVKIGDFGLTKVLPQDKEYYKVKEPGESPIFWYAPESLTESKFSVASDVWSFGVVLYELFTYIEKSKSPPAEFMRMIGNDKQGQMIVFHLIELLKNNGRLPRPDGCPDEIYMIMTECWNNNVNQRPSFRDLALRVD
Summary of the method: as §1

[1] = target: human TYK2 (JH2domain-pseudokinase) (Homo sapiens (Human), UniProt P29597); assay: TYK2 JH2 Domain Binding Assay (KINOMEscan)
Chain of human TYK2 (JH2domain-pseudokinase) (P29597 556-888): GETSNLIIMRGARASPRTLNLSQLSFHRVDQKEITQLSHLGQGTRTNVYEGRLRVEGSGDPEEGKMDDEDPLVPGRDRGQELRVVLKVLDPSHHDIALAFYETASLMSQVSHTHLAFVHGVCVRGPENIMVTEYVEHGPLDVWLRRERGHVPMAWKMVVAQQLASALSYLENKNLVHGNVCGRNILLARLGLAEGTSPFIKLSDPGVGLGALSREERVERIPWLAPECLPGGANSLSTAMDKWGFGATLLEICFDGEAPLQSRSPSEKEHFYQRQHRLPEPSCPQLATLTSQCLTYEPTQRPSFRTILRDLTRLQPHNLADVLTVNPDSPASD
Summary of the method: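 Pseudokinase domain binding was measured by qPCR of tagged, bead-retained kinase after 1 h room-temperature competition, with 0.9% DMSO and compound up to 30,000 nM in 3-fold steps. Hill-equation Kd, duplicate.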

Chain of Tyk2 kinase domain (DH1) (P29597 897-1176): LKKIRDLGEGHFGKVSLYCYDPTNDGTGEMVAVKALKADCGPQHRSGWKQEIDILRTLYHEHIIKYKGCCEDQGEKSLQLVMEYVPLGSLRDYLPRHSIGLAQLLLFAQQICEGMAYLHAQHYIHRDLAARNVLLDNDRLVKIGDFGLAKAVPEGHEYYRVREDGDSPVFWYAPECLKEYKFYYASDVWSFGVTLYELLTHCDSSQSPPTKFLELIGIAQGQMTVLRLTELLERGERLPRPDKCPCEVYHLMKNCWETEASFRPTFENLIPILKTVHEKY

| inhibition at 10 µM (Tyk2 kinase domain (DH1)) [%] | inhibition at 10 µM (JAK2 kinase domain (JH1)) [%] | Kd [1] [nM] | Structure (SMILES) | Tyk2 JH1% Inhibition @ 10 μM (Tyk2 kinase domain (DH1)) | JAK2 JH1% Inhibition @ 10 μM (JAK2 kinase domain (JH1)) |
| --- | --- | --- | --- | --- | --- |
| < 50 | < 50 | < 0.2 | CNc1cc(Nc2cccn(C3CCN(C)CC3)c2=O)nc2c(C(=O)N[C@H]3C[C@H]3F)cnn12 [I-349] | – | – |
| < 50 | < 50 | < 0.2 | CNc1cc(Nc2cccn([C@@H]3CCCOC3)c2=O)nc2c(C(=O)NC3CCC3)cnn12 [I-353] | – | – |
| < 50 | < 50 | 0.2 to 1 | CNc1cc(Nc2cccnc2C(C)(F)F)nc2c(C(=O)NCC(C)(C)CO)cnn12 [I-355] | – | – |
| < 50 | < 50 | < 0.2 | CNc1cc(Nc2cccn([C@H]3CC[C@@H](OC)CC3)c2=O)nc2c(C(=O)NC3CC3)cnn12 [I-356] | – | – |
| < 50 | < 50 | < 0.2 | CNc1cc(Nc2cccn([C@H]3CC[C@@H](OC)CC3)c2=O)nc2c(C(=O)NC3CCC3)cnn12 [I-358] | – | – |
| < 50 | < 50 | < 0.2 | CNc1cc(Nc2cccn([C@H]3CC[C@](C)(OC)CC3)c2=O)nc2c(C(=O)NC3CC3)cnn12 [I-361] | – | – |
| < 50 | < 50 | < 0.2 | CNc1cc(Nc2cccn(CC3CCCCO3)c2=O)nc2c(C(=O)NC3CC3)cnn12 (stereo not drawn) [I-364] | – | – |
| < 50 | < 50 | 0.2 to 1 | CNc1cc(Nc2cccnc2OC2CN(CC(F)(F)F)C2)nc2c(C(=O)NC3CC3)cnn12 [I-367] | – | – |
| < 50 | < 50 | 0.2 to 1 | COc1ncccc1Nc1cc(NCCCN2CCOCC2)n2ncc(C(=O)NC3CC3)c2n1 [I-376, N-cyclopropyl-5-((2-methoxypyridin-3-yl)amino)-7-((3-morpholinopropyl)amino)pyrazolo[1,5-a]pyrimidine-3-carboxamide] | – | – |
| < 50 | < 50 | 0.2 to 1 | CNc1cc(Nc2cccc(N3CCCC3)n2)nc2c(C(=O)NC3CC3)cnn12 [I-382] | – | – |
| < 50 | < 50 | 0.2 to 1 | CNc1cc(Nc2cccc(N3CCCC3)n2)nc2c(C(=O)N[C@H]3C[C@H]3F)cnn12 [I-383] | – | – |
| < 50 | < 50 | 1 to 10 | COc1ncccc1Nc1cc(NCCN2CCOCC2)n2ncc(C(=O)NC3CC3)c2n1 [I-387, N-cyclopropyl-5-((2-methoxypyridin-3-yl)amino)-7-((2-morpholinoethyl)amino)pyrazolo[1,5-a]pyrimidine-3-carboxamide] | – | – |
| < 50 | < 50 | < 0.2 | CNc1cc(Nc2cccn(-c3ccc(C4CCN(C)CC4)cc3)c2=O)nc2c(C(=O)N[C@H]3C[C@H]3F)cnn12 [I-389] | – | – |
| < 50 | < 50 | 0.2 to 1 | CNc1cc(Nc2cccn(C(C)C)c2=O)nc2c(C(=O)NC3CC3)cnn12 [I-394] | – | – |
| < 50 | < 50 | 0.2 to 1 | CNc1cc(Nc2cccnc2OC2CC2)nc2c(C(=O)N[C@@H]3CC[C@H]3O)cnn12 [I-398] | – | – |
| < 50 | < 50 | 0.2 to 1 | CNc1cc(Nc2cccnc2OC2CC2)nc2c(C(=O)N[C@H]3CC[C@H]3O)cnn12 [I-402] | – | – |
| < 50 | < 50 | 0.2 to 1 | CNc1cc(Nc2cccn([C@H]3CCC[C@@H]3OC)c2=O)nc2c(C(=O)NC3CC3)cnn12 [I-403] | – | – |
| < 50 | < 50 | 0.2 to 1 | CNc1cc(Nc2cccn(C[C@H]3CCCCO3)c2=O)nc2c(C(=O)NC3CC3)cnn12 [I-412] | – | – |
| < 50 | < 50 | 0.2 to 1 | CNc1cc(Nc2cccn([C@H]3CC[C@@](C)(O)CC3)c2=O)nc2c(C(=O)NC3CC3)cnn12 [I-414] | – | – |
| < 50 | < 50 | > 10 | CNc1cc(Nc2cc(F)cn(-c3nn(C)cc3C)c2=O)nc2c(C(=O)N[C@@H]3C[C@@H]3F)cnn12 [I-416] | – | – |

| inhibition at 10 µM (Tyk2 kinase domain (DH1)) [%] | inhibition at 10 µM (JAK2 kinase domain (JH1)) [%] | Kd [1] [nM] | Structure (SMILES) | Tyk2 JH1% Inhibition @ 10 μM (Tyk2 kinase domain (DH1)) | JAK2 JH1% Inhibition @ 10 μM (JAK2 kinase domain (JH1)) |
| --- | --- | --- | --- | --- | --- |
| < 50 | < 50 | 1 to 10 | CNc1cc(Nc2cccnc2OC)nc2c(C(=O)NCCC3CCCO3)cnn12 (stereo not drawn) [I-418, 5-((2-methoxypyridin-3-yl)amino)-7-(methylamino)-N-(2-(tetrahydrofuran-2-yl)ethyl)pyrazolo[1,5-a]pyrimidine-3-carboxamide] | – | – |
| < 50 | < 50 | 1 to 10 | [2H]C([2H])([2H])Oc1ncccc1Nc1cc(NC)n2ncc(C(=O)NCCC3CCCO3)c2n1 (stereo not drawn) [I-419, 5-((2-(methoxy-d3)pyridin-3-yl)amino)-7-(methylamino)-N-(2-(tetrahydrofuran-2-yl)ethyl)pyrazolo[1,5-a]pyrimidine-3-carboxamide] | – | – |
| < 50 | < 50 | 0.2 to 1 | CNc1cc(Nc2cccnc2OC)nc2c(C(=O)NCCC(C)(C)O)cnn12 [I-420, N-(3-hydroxy-3-methylbutyl)-5-((2-methoxypyridin-3-yl)amino)-7-(methylamino)pyrazolo[1,5-a]pyrimidine-3-carboxamide] | – | – |
| < 50 | < 50 | 0.2 to 1 | [2H]C([2H])([2H])Oc1ncccc1Nc1cc(NC)n2ncc(C(=O)NCCC(C)(C)O)c2n1 [I-421, N-(3-hydroxy-3-methylbutyl)-5-((2-(methoxy-d3)pyridin-3-yl)amino)-7-(methylamino)pyrazolo[1,5-a]pyrimidine-3-carboxamide] | – | – |
| < 50 | < 50 | 1 to 10 | CNc1cc(Nc2cccnc2OC2CC2)nc2c(C(=O)NCCC(C)(C)O)cnn12 [I-422, 5-((2-cyclopropoxypyridin-3-yl)amino)-N-(3-hydroxy-3-methylbutyl)-7-(methylamino)pyrazolo[1,5-a]pyrimidine-3-carboxamide] | – | – |
| < 50 | < 50 | 0.2 to 1 | CNc1cc(Nc2cccn(C[C@H]3CCCCO3)c2=O)nc2c(C(=O)N[C@@H]3C[C@@H]3F)cnn12 [I-427] | – | – |
| < 50 | < 50 | 0.2 to 1 | CNc1cc(Nc2cccnc2OC)nc2c(C(=O)N[C@@H]3CC[C@@H]3O)cnn12 [I-430] | – | – |
| < 50 | < 50 | > 10 | CNc1cc(Nc2cc(F)cn(-c3nn(C)cc3C)c2=O)nc2c(C(=O)NC3CC3)cnn12 [I-431] | – | – |
| < 50 | < 50 | < 0.2 | CNc1cc(Nc2cccc(C3CCCCO3)n2)nc2c(C(=O)NC3CC3)cnn12 (stereo not drawn) [I-432, N-cyclopropyl-7-(methylamino)-5-((6-(tetrahydro-2H-pyran-2-yl)pyridin-2-yl)amino)pyrazolo[1,5-a]pyrimidine-3-carboxamide] | – | – |
| < 50 | < 50 | < 0.2 | CNc1cc(Nc2cccnc2OC)nc2c(C(=O)NCC(C)CO)cnn12 (stereo not drawn) [I-434, N-(3-hydroxy-2-methylpropyl)-5-((2-methoxypyridin-3-yl)amino)-7-(methylamino)pyrazolo[1,5-a]pyrimidine-3-carboxamide] | – | – |
| – | – | 0.2 to 1 | CNc1cc(Nc2cccn([C@H]3CCC[C@@H]3OC)c2=O)nc2c(C(=O)NC3CC3)cnn12 [I-436] | A (percent inhibition at 10 μM lower than 50) | A (percent inhibition at 10 μM lower than 50) |
| – | – | 0.2 to 1 | CNc1cc(Nc2cccn([C@H]3CCC[C@@H]3OC)c2=O)nc2c(C(=O)NC3CC3)cnn12 [I-437] | A (percent inhibition at 10 μM lower than 50) | A (percent inhibition at 10 μM lower than 50) |
| < 50 | < 50 | 0.2 to 1 | CNc1cc(Nc2cccnc2OC2CC2)nc2c(C(=O)N[C@H]3C[C@@H]3O)cnn12 [I-439, 5-((2-cyclopropoxypyridin-3-yl)amino)-N-((1S,2S)-2-hydroxycyclopropyl)-7-(methylamino)pyrazolo[1,5-a]pyrimidine-3-carboxamide] | – | – |
| < 50 | < 50 | 0.2 to 1 | CNc1cc(-c2nn(C(C)C)c3ncccc23)nc2c(C(=O)NC3CC3)cnn12 [I-440] | – | – |
| < 50 | < 50 | 0.2 to 1 | CNc1cc(-c2nn(C3CCOCC3)c3ncccc23)nc2c(C(=O)NC3CC3)cnn12 [I-441] | – | – |
| < 50 | < 50 | 0.2 to 1 | CNc1cc(Nc2cccn([C@H]3CCC[C@@H]3OC)c2=O)nc2c(C(=O)N[C@@H]3C[C@@H]3F)cnn12 [I-442] | – | – |
| < 50 | < 50 | 0.2 to 1 | CNc1cc(-c2nn(C3CCOC3)c3ncccc23)nc2c(C(=O)NC3CC3)cnn12 (stereo not drawn) [I-443] | – | – |
| < 50 | < 50 | < 0.2 | CNc1cc(Nc2cccn(-c3cnn(CC4CCOC4)c3)c2=O)nc2c(C(=O)NC3CC3)cnn12 (stereo not drawn) [I-444] | – | – |
| < 50 | < 50 | 0.2 to 1 | CNc1cc(Nc2cccnc2OC)nc2c(C(=O)N[C@H]3[C@@H]4COC[C@@H]43)cnn12 [I-445, N-((1R,5S,6r)-3-oxabicyclo[3.1.0]hexan-6-yl)-5-((2-methoxypyridin-3-yl)amino)-7-(methylamino)pyrazolo[1,5-a]pyrimidine-3-carboxamide] | – | – |
| < 50 | < 50 | 0.2 to 1 | CNc1cc(Nc2cccnc2OC2CC2)nc2c(C(=O)N[C@H]3[C@@H]4COC[C@@H]43)cnn12 [I-446] | – | – |
